Experimental findings from patent publication US20120064072A1, “Combination Cancer Therapy Comprising Administration of an EGFR Inhibitor and an IGF-1R Inhibitor” (priority 2009, published 2012) are described below.

The subject of experiment [1] is H292 (NSCLC) human tumor xenograft. The experiment can be described thus: Treatment beyond progression (TBP), H292 xenograft model. Type of experiment: in vivo, mice.
Experimental: Anti-tumor efficacy was evaluated using mouse xenograft tumor models derived from GEO and H292 cells. Female athymic nude nu/nu CD-1 mice (6-8 wks, 22-29 g) were obtained from Charles River Laboratories (Wilmington, Mass.). Animals were allowed to acclimate for a minimum of one week prior to initiation of a study. Throughout the studies, animals were allowed sterile rodent chow and water ad libitum, and immunocompromised animals were maintained under specific pathogen free conditions. […] Tumor cells were harvested from cell culture flasks during exponential cell growth, washed twice with sterile PBS, counted and resuspended in PBS to a suitable concentration before s.c. implantation on the right flank of female nu/nu CD-1 mice. Tumors were established to 200+/−50 mm^3 in size before randomization into treatment groups of 8 mice each. Body weights were determined twice weekly along with tumor volume {V=[length×(width)^2]/2} measurements using Vernier calipers during the study. Tumor growth inhibition (% TGI) was determined by the following formula: % TGI={1−[(Tt/T0)/(Ct/C0)]/1-[C0/Ct]}×100. Tt is tumor volume of treated at time t; T0 is tumor volume of treated at time 0; Ct is tumor volume of control at time t; and C0 is tumor volume of control at time 0. […] Furthermore, we evaluated the effect of drug treatment on tumor growth delay (GD or T-C value), defined as the difference in time (days) required for the treated tumors (T) to reach 400% of the initial tumor volume compared with those of the control group (C). […] At the time of tumor progression on single agent erlotinib treatment mice were randomized into additional study groups of 8 mice each. Individual tumor volumes were calculated, as stated above, for all mice throughout the study and the time in days until each mouse doubled its tumor volume from the time of re-randomization was determined by linear regression analysis of the entire data set. Statistical evaluation of the data was determined by Kaplan-Meier Survival analysis.
In two separate experiments (FIGS. 9-11 and FIGS. 13-15), NCI-H292 cells were harvested from cell culture flasks during exponential cell growth, washed twice with sterile PBS, counted and resuspended in PBS to a suitable concentration before s.c. implantation on the right flank of female nu/nu CD-1 mice. Tumors were established to 200+/−50 mm^3 in size before randomization into vehicle control or erlotinib treatment groups.
Experiment [2] relates to GEO (CRC) human tumor xenograft. The experiment can be described thus: Treatment beyond progression (TBP), GEO xenograft model. It is filed as in vivo, mice. To be noted: after progression on 18 days erlotinib, erlotinib maintenance 100 mg/kg per day, or with OSI-906 15 mg/kg per day added, FIG. 4. The method, then:
The H292 (NSCLC) and GEO (CRC) human tumor xenograft models were used to evaluate the efficacy of EGFR inhibitor (erlotinib) maintenance therapy with and without the addition of IGF-1R inhibitor (OSI-906) therapy following response and subsequent progression on erlotinib monotherapy.
Anti-tumor efficacy was evaluated using mouse xenograft tumor models derived from GEO and H292 cells. Female athymic nude nu/nu CD-1 mice (6-8 wks, 22-29 g) were obtained from Charles River Laboratories (Wilmington, Mass.). Animals were allowed to acclimate for a minimum of one week prior to initiation of a study. […] Tumor cells were harvested from cell culture flasks during exponential cell growth, washed twice with sterile PBS, counted and resuspended in PBS to a suitable concentration before s.c. implantation on the right flank of female nu/nu CD-1 mice. […] Body weights were determined twice weekly along with tumor volume {V=[length×(width)^2]/2} measurements using Vernier calipers during the study. Tumor growth inhibition (% TGI) was determined by the following formula: % TGI={1−[(Tt/T0)/(Ct/C0)]/1-[C0/Ct]}×100. […] Furthermore, we evaluated the effect of drug treatment on tumor growth delay (GD or T-C value), defined as the difference in time (days) required for the treated tumors (T) to reach 400% of the initial tumor volume compared with those of the control group (C). […]

Experiment [3] has as its system H292 (NSCLC) human tumor xenograft. The experiment can be described thus: Frontline combination treatment, H292 xenograft model. To be noted: by 100 days. It is filed as in vivo, mice.
Experimental: Anti-tumor efficacy was evaluated using mouse xenograft tumor models derived from GEO and H292 cells. Female athymic nude nu/nu CD-1 mice (6-8 wks, 22-29 g) were obtained from Charles River Laboratories (Wilmington, Mass.). Animals were allowed to acclimate for a minimum of one week prior to initiation of a study. Throughout the studies, animals were allowed sterile rodent chow and water ad libitum, and immunocompromised animals were maintained under specific pathogen free conditions. […] Tumor cells were harvested from cell culture flasks during exponential cell growth, washed twice with sterile PBS, counted and resuspended in PBS to a suitable concentration before s.c. implantation on the right flank of female nu/nu CD-1 mice. […] Body weights were determined twice weekly along with tumor volume {V=[length×(width)^2]/2} measurements using Vernier calipers during the study. Tumor growth inhibition (% TGI) was determined by the following formula: % TGI={1−[(Tt/T0)/(Ct/C0)]/1-[C0/Ct]}×100. […] Furthermore, we evaluated the effect of drug treatment on tumor growth delay (GD or T-C value), defined as the difference in time (days) required for the treated tumors (T) to reach 400% of the initial tumor volume compared with those of the control group (C). […] Statistical evaluation of the data was determined by Kaplan-Meier Survival analysis.
Experiment [4] concerns pIGF-1R. Nature of the experiment: RTK array analysis, GEO model. It is filed as in vivo, human. As to conditions: erlotinib 100 mg/kg per day for eighteen days, all treated tumors, FIG. 1. How it is done:
(§1) In untreated GEO tumors and tumors treated with erlotinib (100 mg/kg per day) for eighteen days, the levels of pEGFR, pIGF-1R, and pIR were measured in terms of median pixel density, as shown in FIG. 1.

The test system of experiment [5] is pIR. The experiment can be described thus: RTK array analysis, GEO model. It is filed as in vivo, human. As to conditions: erlotinib 100 mg/kg per day for eighteen days, all treated tumors, FIG. 1. How it is done:
as §1

Experiment [6] deals with pIGF-1R. Nature of the experiment: RTK array analysis, H292 model. It is filed as in vivo, human. As to conditions: H292 tumors, erlotinib 100 mg/kg per day eighteen days, progressor tumors vs untreated or non-progressor; FIG. 5. The method, then: (§2) In untreated H292 tumors and tumors treated with erlotinib (100 mg/kg per day) for eighteen days, the levels of pIGF-1R and pIR were measured in terms of pixel density normalized to phosphotyrosine loading control, as shown in FIG. 5. Tumors that initially responded and then progressed (progressor) show upregulation of both pIGF-1R and pIR as compared to untreated tumors or tumors that continue to respond to erlotinib treatment (non-progressor).

For experiment [7], the system named is pIR. Nature of the experiment: RTK array analysis, H292 model. It is filed as in vivo, human. As to conditions: H292 tumors, erlotinib 100 mg/kg per day eighteen days, progressor tumors vs untreated or non-progressor; FIG. 5. The method, then:
as §2

Experiment [8] concerns Akt. The experiment can be described thus: GEO model Western blot analysis. To be noted: erlotinib 100 mg/kg per day eighteen days, FIG. 2. Type of experiment: in vivo, human. The method, then: (§3) In untreated GEO tumors and tumors treated with erlotinib (100 mg/kg per day) for eighteen days, the levels of total and phosphorylated Akt and Erk were measured and quantitated in terms of the ratio of phosphor to total protein in each sample and then plotted as compared to levels observed in vehicle control treated tumors (assumed to be 100%).
For orientation: A western blot detects proteins with antibodies after separation by electrophoresis.

For experiment [9], the system named is Erk. The experiment can be described thus: GEO model Western blot analysis. As to conditions: erlotinib 100 mg/kg per day eighteen days, FIG. 2. Type of experiment: in vivo, human. The method, then:
as §3

Experiment [10] relates to Akt. The experiment can be described thus: H292 model Western blot analysis. To be noted: H292, erlotinib 100 mg/kg per day eighteen days, FIG. 6. Type of experiment: in vivo, human. The method, then:
(§4) In untreated H292 tumors and tumors treated with erlotinib (100 mg/kg per day) for eighteen days, the levels of total and phosphorylated Akt and Erk were measured and quantitated in terms of the ratio of phosphor to total protein in each sample and then plotted as compared to levels observed in vehicle control treated tumors (assumed to be 100%).

Experiment [11] has as its system Erk. Nature of the experiment: H292 model Western blot analysis. As to conditions: H292, erlotinib 100 mg/kg per day eighteen days, FIG. 6. It is filed as in vivo, human. The method, then:
as §4

The mark [12] stands for this setting: OSI-906 50 mg/kg per day after taking off erlotinib.
[13] abbreviates: tumors that do not progress on treatment.
Setting [14] is: tumors that respond and then progress on treatment.

Consider `C[C@]1(O)C[C@@H](c2nc(-c3ccc4ccc(-c5ccccc5)nc4c3)c3c(N)nccn32)C1` [OSI-906, cis-3-[8-amino-1-(2-phenyl-quinolin-7-yl)-imidazo[1,5-a]pyrazin-3-yl]-1-methyl-cyclobutanol], for which, in experiment [1] (setting [12]), the “time to tumor doubling, switching to OSI-906 single agent versus maintaining erlotinib single agent” value is reported as “no statistical difference” and the “time to two tumor doublings, switching to OSI-906 single agent versus maintaining erlotinib single agent” value is “no statistical difference”.
With `C#Cc1cccc(Nc2ncnc3cc(OCCOC)c(OCCOC)cc23)c1` [erlotinib, [6,7-bis(2-methoxyethoxy)-4-quinazolin-4-yl]-(3-ethynylphenyl)amine], the “median time to tumor doubling following the re-sorting” value in experiment [2] is reported as “about 28 days”. The “median time to one doubling” value in [1] (first trial, FIG. 10, Kaplan-Meier, after 28 days erlotinib 100 mg/kg per day, combination = erlotinib + OSI-906 15 or 10 mg/kg) was determined as 20.9 days; in experiment [1] (second trial, FIG. 14, Kaplan-Meier), 20.9 days. Also, the “median time to two doublings” value is on record as 41.5 days in experiment [1] (first trial, FIG. 11, Kaplan-Meier, combination = erlotinib + OSI-906 15 or 10 mg/kg) and 45.8 days in [1] (second trial, FIG. 15, Kaplan-Meier). Besides, the “mice that doubled their tumor volumes twice” value in experiment [3] was 7 of 8. Further, the “level of pIGF-1R (median pixel density) compared to untreated tumors” value in experiment [4] is listed as “upregulation”. Further, the “level of pIR (median pixel density) compared to untreated tumors” value in [5] is listed as “upregulation”. In experiment [6], the “level of pIGF-1R (pixel density normalized to phosphotyrosine loading control)” value is listed as “upregulation”. Moreover, in experiment [7], the “level of pIR (pixel density normalized to phosphotyrosine loading control)” value is “upregulation”. Moreover, the “phospho to total Akt versus vehicle control” value in experiment [8] (setting [13]) was “continued inhibition”; in experiment [8] (setting [14]) it was “no longer inhibiting”; in experiment [10] (setting [13]) it was “continued inhibition”; in [10] (setting [14]), “no longer inhibiting”. Moreover, the “phospho to total Erk versus vehicle control” value was “continued inhibition” in experiment [9] (setting [13]), “no longer inhibiting” in experiment [9] (setting [14]), “continued inhibition” in experiment [11] (setting [13]) and “no longer inhibiting” in [11] (setting [14]).
